These results are taken from US20220117913A1, “DEZOCINE DERIVATIVE AND MEDICAL USE THEREOF” (YANGTZE RIVER PHARMACEUTICAL GROUP CO., LTD., priority 2019, published 2022).

Counter-ions that a name gives are not always drawn. Like-named read-outs stand apart in the source and are kept apart here.

One assay addresses μ opioid receptor (Homo sapiens, UniProt P35372). Nature of the assay: radioisotope ligand competitive binding assay, μ opioid receptor (MOR).
Another assay has as its target κ opioid receptor (Homo sapiens, UniProt P41145). The assay can be described thus: radioisotope ligand competitive binding assay, κ opioid receptor (KOR). From the text: (§1) Through the radioisotope ligand competitive binding assay, IC50 of the compound was used as an indicator to evaluate the affinity of the compound to κ and δ opioid receptors.
(§2) (1) Reagents • The cell membrane was extracted from stably transfected cells constructed by WuXi AppTec, Shanghai. • 3H-diprenophrine (PerkinElmer, Cat: NET1121250UC, Lot: 2143599) • 3H-DAMGO (PerkinElmer, Cat: NET902250UC, Lot: 2139100) • 3H-DADLE (PerkinElmer, Cat: NET648250UC, Lot: 2060549) • Tris base (Sigma, Cat: T6066-1KG), prepare 1M stock and adjust pH to 7.4. • 0.5M EDTA (Invitrogen, Cat: 15575-038) • 1M MgCl2 (Sigma, Cat: M1028-100 ml) • PEI (Poly ethyleneimine) (Sigma, Cat: P3143) • Microscint 20 cocktail (PerkinElmer, Cat: 6013329) • Naltrindole (Sigma, Cat; N115) • (±)trans-U-50488 (Sigma, Cat: D8040) • DAMGO (Sigma, Cat: E7384)
(§3) (1) 1 μL of the test compounds, negative control (i.e., DMSO) and positive control (i.e., non-specific binding well compound), after being prepared, were respectively transferred to a 96-well plate;
(§4) (2) 99 μL of the prepared opioid receptor membrane protein was added to each well of the 96-well plate containing 1 μL of the compound;
(§5) (3) 100 μL of 2× corresponding radioisotope ligand was added to each well;
(§6) (4) The plate was placed on a shake and incubated at room temperature for 1 hour;
(§7) (5) Each well of the GF/C plate was soaked with 50 μL of 0.3% PEI for at least half an hour in advance;
(§8) (6) After the incubation was finished, the GF/C plate was washed with plate washing buffer once by using Harvest. Then, the cell membranes in the 96-well plate were collected onto the GF/C plate using Harvest, and the GF/C plate was washed four times with the plate washing buffer, each time about 250 μL;
(§9) (7) The GF/C plate was placed in an oven at 50° C. for 1 hour;
(§10) (8) The bottom of the GF/C plate was sealed with a plate sealing film, 50 μL of Microscint-20 scintillation fluid was added to each well, and then the plate was sealed with a transparent sealing film for microplate;
(§11) (9) The radioactive signal value CPM was read using MicroBeta2;
(§12) (10) The data was analyzed with Prism 5. The percentage inhibition rate was calculated with the calculation formula: % Inh=(1-Background subtracted Assay value/Background subtracted HC value)*100.

The target in a further assay is δ opioid receptor (Homo sapiens, UniProt P41143). Nature of the assay: radioisotope ligand competitive binding assay, δ opioid receptor (DOR).
Text: as §1, §2, §3, §4, §5, §6, §7, §8, §9, §10, §11, §12

The mark [1] stands for this setting: [3H]DAMGO 0.5 nM, cell membrane of stably transfected cells, read-out: μ IC50.
Setting [2] is: [3H]Diprenorphine 0.3 nM, cell membrane of stably transfected cells, read-out: κ IC50.
The mark [3] stands for this setting: [3H]-DADLE 0.5 nM, cell membrane of stably transfected cells, read-out: δ IC50.

As to `COc1ccc2c(c1)[C@@]1(C)CCCCC[C@@H](C2)[C@@H]1N(C)C` [Hydrochloride of compound 11], the values for the IC50 at μ opioid receptor (setting [1]), on κ opioid receptor (setting [2]) and on δ opioid receptor (setting [3]) were 100 to 1000 nM, above 10000 nM and above 10000 nM, respectively.

On to `COc1ccc2c(c1)[C@@]1(C)CCCCC[C@@H](C2)[C@@H]1NCc1ccccc1` [Hydrochloride of compound 9], for which the IC50 (in general, the point on the concentration scale where inhibition reaches its midpoint) lay within 100 to 1000 nM on μ opioid receptor (setting [1]), 100 to 1000 nM at κ opioid receptor (setting [2]) and 1000 to 10000 nM at δ opioid receptor (setting [3]).

On to `CN[C@H]1[C@H]2CCCCC[C@]1(C)c1cc(O)ccc1C2` [Hydrochloride of compound 18], for which the figures for the concentration for half-maximal inhibition (IC50) on μ opioid receptor (setting [1]), at κ opioid receptor (setting [2]) and at δ opioid receptor (setting [3]) were 10 to 100 nM, 100 to 1000 nM and 1000 to 10000 nM, respectively.

`CCOc1ccc2c(c1)[C@@]1(C)CCCCC[C@@H](C2)[C@@H]1N` [Hydrochloride of compound 35]: the 50% inhibitory concentration (IC50) at μ opioid receptor is 100 to 1000 nM; on κ opioid receptor it was above 10000 nM; on δ opioid receptor it was above 10000 nM.

For `CN(C)[C@H]1[C@H]2CCCCC[C@]1(C)c1cc(O)ccc1C2` [Hydrochloride of compound 28], the values for the IC50 at μ opioid receptor (setting [1]), at κ opioid receptor (setting [2]) and on δ opioid receptor (setting [3]) were below 10 nM, 100 to 1000 nM and 1000 to 10000 nM, respectively.

`CCCN(C)[C@H]1[C@H]2CCCCC[C@]1(C)c1cc(O)ccc1C2` [Hydrochloride of compound 31]: the IC50 on μ opioid receptor (setting [1]) is below 10 nM; at κ opioid receptor (setting [2]) it was 100 to 1000 nM; on δ opioid receptor (setting [3]) it was 10 to 100 nM.

Turning to `COc1ccc2c(c1)[C@@]1(C)CCCCC[C@@H](C2)[C@@H]1N(C)Cc1ccccc1` [Hydrochloride of compound 17], the half-inhibitory concentration (IC50) at μ opioid receptor (setting [1]) was 100 to 1000 nM; at κ opioid receptor (setting [2]), above 10000 nM; at δ opioid receptor (setting [3]), above 10000 nM.

As for `CCCN(C)[C@H]1[C@H]2CCCCC[C@]1(C)c1cc(OC)ccc1C2` [Hydrochloride of compound 14], the IC50 at μ opioid receptor (setting [1]) is 100 to 1000 nM; at κ opioid receptor (setting [2]), 1000 to 10000 nM; at δ opioid receptor (setting [3]), above 10000 nM.

With `COc1ccc2c(c1)[C@@]1(C)CCCCC[C@@H](C2)[C@@H]1NCCc1ccc(Cl)c(Cl)c1` [Hydrochloride of compound 10], the results for the IC50 at μ opioid receptor (setting [1]), at κ opioid receptor (setting [2]) and at δ opioid receptor (setting [3]) were 100 to 1000 nM, 1000 to 10000 nM and above 10000 nM, respectively.

As to `CCCN[C@H]1[C@H]2CCCCC[C@]1(C)c1cc(OC)ccc1C2` [Hydrochloride of compound 3], the values for the half-inhibitory concentration (IC50) on μ opioid receptor (setting [1]), on κ opioid receptor (setting [2]) and on δ opioid receptor (setting [3]) were 10 to 100 nM, 100 to 1000 nM and above 10000 nM, respectively.

As to `COc1ccc2c(c1)[C@@]1(C)CCCCC[C@@H](C2)[C@@H]1NCCc1ccccc1` [Hydrochloride of compound 8], the IC50 is 10 to 100 nM on μ opioid receptor (setting [1]), above 10000 nM at κ opioid receptor (setting [2]) and above 10000 nM at δ opioid receptor (setting [3]).

On to `COc1ccc2c(c1)[C@@]1(C)CCCCC[C@@H](C2)[C@@H]1N1CCCC1` [Hydrochloride of compound 12], for which the IC50 at μ opioid receptor (setting [1]) was 1000 to 10000 nM; on κ opioid receptor (setting [2]) it was above 10000 nM; on δ opioid receptor (setting [3]) it was above 10000 nM.

On to `CCN[C@H]1[C@H]2CCCCC[C@]1(C)c1cc(OC)ccc1C2` [Hydrochloride of compound 2], for which the half-maximal inhibitory concentration (IC50) is 100 to 1000 nM at μ opioid receptor (setting [1]), 1000 to 10000 nM on κ opioid receptor (setting [2]) and above 10000 nM on δ opioid receptor (setting [3]).

On to `CCCCCN(C)[C@H]1[C@H]2CCCCC[C@]1(C)c1cc(O)ccc1C2` [Hydrochloride of compound 33], for which the IC50 is below 10 nM at μ opioid receptor (setting [1]), 100 to 1000 nM at κ opioid receptor (setting [2]) and 100 to 1000 nM on δ opioid receptor (setting [3]).

Turning to `COc1ccc2c(c1)[C@@]1(C)CCCCC[C@@H](C2)[C@@H]1NCC1CC1` [Hydrochloride of compound 7], the values for the IC50 at μ opioid receptor (setting [1]), on κ opioid receptor (setting [2]) and at δ opioid receptor (setting [3]) were 100 to 1000 nM, 100 to 1000 nM and above 10000 nM, respectively.

`CN[C@H]1[C@H]2CCCCC[C@]1(C)c1cc(OC)ccc1C2` [Hydrochloride of compound 1]: the concentration for half-maximal inhibition (IC50) on μ opioid receptor (setting [1]) was 100 to 1000 nM; at κ opioid receptor (setting [2]), 1000 to 10000 nM; on δ opioid receptor (setting [3]), above 10000 nM.

With `CCCCN(C)[C@H]1[C@H]2CCCCC[C@]1(C)c1cc(O)ccc1C2` [Hydrochloride of compound 32], the IC50 at μ opioid receptor (setting [1]) was below 10 nM; on κ opioid receptor (setting [2]), 10 to 100 nM; at δ opioid receptor (setting [3]) it was 10 to 100 nM.

Regarding `C[C@@]12CCCCC[C@@H](Cc3ccc(O)cc31)[C@@H]2NCCc1ccc(Cl)c(Cl)c1` [Hydrochloride of compound 27], the concentration for half-maximal inhibition (IC50) was 10 to 100 nM on μ opioid receptor (setting [1]), 10 to 100 nM on κ opioid receptor (setting [2]) and 100 to 1000 nM at δ opioid receptor (setting [3]).

Turning to `CCCCCN(C)[C@H]1[C@H]2CCCCC[C@]1(C)c1cc(OC)ccc1C2` [Hydrochloride of compound 16], the IC50 at μ opioid receptor (setting [1]) was 100 to 1000 nM; at κ opioid receptor (setting [2]) it was above 10000 nM; at δ opioid receptor (setting [3]) it was above 10000 nM.

Consider `C[C@@]12CCCCC[C@@H](Cc3ccc(O)cc31)[C@@H]2NCC1CC1` [Hydrochloride of compound 24], for which the IC50 on μ opioid receptor (setting [1]) is 10 to 100 nM; at κ opioid receptor (setting [2]), 100 to 1000 nM; on δ opioid receptor (setting [3]), 1000 to 10000 nM.

With `COc1ccc2c(c1)[C@@]1(C)CCCCC[C@@H](C2)[C@@H]1NC(C)C` [Hydrochloride of compound 6], the results for the half-maximal inhibitory concentration (IC50) at μ opioid receptor (setting [1]), at κ opioid receptor (setting [2]) and at δ opioid receptor (setting [3]) were 1000 to 10000 nM, 1000 to 10000 nM and above 10000 nM, respectively.

Take `CN(CCc1ccccc1)[C@H]1[C@H]2CCCCC[C@]1(C)c1cc(O)ccc1C2` [Hydrochloride of compound 30]: the results for the IC50 on μ opioid receptor (setting [1]), on κ opioid receptor (setting [2]) and on δ opioid receptor (setting [3]) were below 10 nM, 10 to 100 nM and 10 to 100 nM, respectively.

For `C[C@@]12CCCCC[C@@H](Cc3ccc(OCc4ccccc4)cc31)[C@@H]2NCc1ccccc1` [Hydrochloride of compound 39], the figures for the half-maximal inhibitory concentration (IC50) at μ opioid receptor (setting [1]), at κ opioid receptor (setting [2]) and on δ opioid receptor (setting [3]) were below 10 nM, 100 to 1000 nM and 100 to 1000 nM, respectively.

As for `C[C@@]12CCCCC[C@@H](Cc3ccc(OCc4ccccc4)cc31)[C@@H]2N` [Hydrochloride of compound 36], the 50% inhibitory concentration (IC50) on μ opioid receptor (setting [1]) fell in the range of 10 to 100 nM; on κ opioid receptor (setting [2]) it was 1000 to 10000 nM; at δ opioid receptor (setting [3]), 1000 to 10000 nM.

Take `CCCCN[C@H]1[C@H]2CCCCC[C@]1(C)c1cc(OC)ccc1C2` [Hydrochloride of compound 4]: the figures for the concentration for half-maximal inhibition (IC50) at μ opioid receptor (setting [1]), at κ opioid receptor (setting [2]) and at δ opioid receptor (setting [3]) were 10 to 100 nM, 1000 to 10000 nM and 1000 to 10000 nM, respectively.

For the compound `CN[C@H]1[C@H]2CCCCC[C@]1(C)c1cc(OCc3ccccc3)ccc1C2` [Hydrochloride of compound 38], the figures for the IC50 on μ opioid receptor (setting [1]), on κ opioid receptor (setting [2]) and at δ opioid receptor (setting [3]) were 10 to 100 nM, 1000 to 10000 nM and 1000 to 10000 nM, respectively.

Turning to `COc1ccc2c(c1)[C@@]1(C)CCCCC[C@@H](C2)[C@@H]1N(C)CCc1ccccc1` [Hydrochloride of compound 13], the IC50 on μ opioid receptor (setting [1]) was 100 to 1000 nM; on κ opioid receptor (setting [2]), above 10000 nM; on δ opioid receptor (setting [3]) it was above 10000 nM.

Regarding `CN(Cc1ccccc1)[C@H]1[C@H]2CCCCC[C@]1(C)c1cc(OCc3ccccc3)ccc1C2` [Hydrochloride of compound 40], the IC50 was below 10 nM at μ opioid receptor (setting [1]), below 10 nM at κ opioid receptor (setting [2]) and 10 to 100 nM on δ opioid receptor (setting [3]).

Take `CC(C)N[C@H]1[C@H]2CCCCC[C@]1(C)c1cc(O)ccc1C2` [Hydrochloride of compound 23]: the half-inhibitory concentration (IC50) on μ opioid receptor (setting [1]) was 10 to 100 nM; on κ opioid receptor (setting [2]) it was 100 to 1000 nM; at δ opioid receptor (setting [3]) it was 1000 to 10000 nM.

As for `CCN[C@H]1[C@H]2CCCCC[C@]1(C)c1cc(O)ccc1C2` [Hydrochloride of compound 19], the figures for the 50% inhibitory concentration (IC50) at μ opioid receptor (setting [1]), on κ opioid receptor (setting [2]) and on δ opioid receptor (setting [3]) were below 10 nM, 10 to 100 nM and 1000 to 10000 nM, respectively.

As for `CCOc1ccc2c(c1)[C@@]1(C)CCCCC[C@@H](C2)[C@@H]1NC` [Hydrochloride of compound 37], the IC50 on μ opioid receptor (setting [1]) was 1000 to 10000 nM; at κ opioid receptor (setting [2]) it was 1000 to 10000 nM; on δ opioid receptor (setting [3]), above 10000 nM.
